Results: ChEMBL document CHEMBL3739345, “Design and synthesis of potent and selective inhibitors of BRD7 and BRD9 bromodomains” (Medchemcomm, 2015)
Active and inactive are the calls of the source. The rule behind the calls is not given here.

How the values were obtained:
[1] = target: T1, Bromodomain-containing protein 9 (Homo sapiens) (UniProt Q9H8M2); assay: Binding affinity to human BRD9 assessed as change in melting temperature at 10 uM by differential scanning fluorimetry
T1 sequence (whole entry): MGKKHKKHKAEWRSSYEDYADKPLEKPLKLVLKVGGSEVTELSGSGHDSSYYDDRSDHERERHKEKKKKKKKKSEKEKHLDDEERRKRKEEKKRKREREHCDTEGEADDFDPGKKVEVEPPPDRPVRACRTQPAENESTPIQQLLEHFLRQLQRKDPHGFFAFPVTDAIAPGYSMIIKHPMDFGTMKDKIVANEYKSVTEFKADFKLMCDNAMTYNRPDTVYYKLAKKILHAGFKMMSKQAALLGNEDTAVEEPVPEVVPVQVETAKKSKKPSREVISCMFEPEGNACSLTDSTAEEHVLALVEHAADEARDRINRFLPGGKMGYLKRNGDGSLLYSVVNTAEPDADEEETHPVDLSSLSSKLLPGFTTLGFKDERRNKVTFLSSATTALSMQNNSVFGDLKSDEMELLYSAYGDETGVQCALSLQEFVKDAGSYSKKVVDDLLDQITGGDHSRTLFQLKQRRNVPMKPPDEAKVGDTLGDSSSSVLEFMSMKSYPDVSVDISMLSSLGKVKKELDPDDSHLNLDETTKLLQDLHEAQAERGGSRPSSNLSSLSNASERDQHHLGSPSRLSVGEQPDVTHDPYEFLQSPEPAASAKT

[2] = target: T2, Bromodomain-containing protein 9 (Homo sapiens, UniProt Q9H8M2); assay: Binding affinity to human BRD9 by isothermal titration calorimetry
T2 sequence (Q9H8M2 whole entry): T1 sequence (whole entry)

Peregrin (Homo sapiens) = target: T3, Peregrin (Homo sapiens) (UniProt P55201); assay: Binding affinity to human BRPF1B assessed as change in melting temperature at 10 uM by differential scanning fluorimetry
T3 sequence (whole entry): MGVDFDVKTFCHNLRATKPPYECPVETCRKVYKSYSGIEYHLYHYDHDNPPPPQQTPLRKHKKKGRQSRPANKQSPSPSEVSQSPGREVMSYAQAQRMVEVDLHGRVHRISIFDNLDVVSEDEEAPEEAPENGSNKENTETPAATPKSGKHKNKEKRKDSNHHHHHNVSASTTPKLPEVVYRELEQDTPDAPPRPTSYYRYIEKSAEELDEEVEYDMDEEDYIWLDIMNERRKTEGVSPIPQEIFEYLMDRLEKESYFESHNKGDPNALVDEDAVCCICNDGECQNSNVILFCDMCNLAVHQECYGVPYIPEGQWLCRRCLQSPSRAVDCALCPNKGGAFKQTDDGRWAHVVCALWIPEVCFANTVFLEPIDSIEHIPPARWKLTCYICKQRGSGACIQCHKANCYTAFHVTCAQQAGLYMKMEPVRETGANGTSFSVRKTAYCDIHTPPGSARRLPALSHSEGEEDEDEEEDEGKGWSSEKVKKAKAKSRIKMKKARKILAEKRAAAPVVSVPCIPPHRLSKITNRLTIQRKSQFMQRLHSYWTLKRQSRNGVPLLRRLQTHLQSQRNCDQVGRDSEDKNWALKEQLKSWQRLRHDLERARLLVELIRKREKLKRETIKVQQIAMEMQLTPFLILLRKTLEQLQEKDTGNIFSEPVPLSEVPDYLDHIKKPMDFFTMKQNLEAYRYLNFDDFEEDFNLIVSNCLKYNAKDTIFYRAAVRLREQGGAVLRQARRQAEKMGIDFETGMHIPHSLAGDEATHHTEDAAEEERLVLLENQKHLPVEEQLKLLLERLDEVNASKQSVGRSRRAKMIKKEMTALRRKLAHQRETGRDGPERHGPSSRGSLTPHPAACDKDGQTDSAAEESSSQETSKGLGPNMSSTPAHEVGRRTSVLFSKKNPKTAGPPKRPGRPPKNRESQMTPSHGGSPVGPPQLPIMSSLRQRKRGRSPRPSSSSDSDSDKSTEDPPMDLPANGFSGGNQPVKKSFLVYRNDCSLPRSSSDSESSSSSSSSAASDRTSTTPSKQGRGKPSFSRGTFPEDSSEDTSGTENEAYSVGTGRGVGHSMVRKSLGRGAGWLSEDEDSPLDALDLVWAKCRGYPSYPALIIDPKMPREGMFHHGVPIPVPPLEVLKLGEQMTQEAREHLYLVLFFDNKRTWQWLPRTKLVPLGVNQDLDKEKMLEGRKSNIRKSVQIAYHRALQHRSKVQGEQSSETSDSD

[3] = target: Bromodomain adjacent to zinc finger domain protein 2B (Homo sapiens, UniProt Q9UIF8); assay: Inhibition of human BAZ2B by alpha screen assay
Chain of Bromodomain adjacent to zinc finger domain protein 2B (Q9UIF8 whole entry, the tested form may be a part): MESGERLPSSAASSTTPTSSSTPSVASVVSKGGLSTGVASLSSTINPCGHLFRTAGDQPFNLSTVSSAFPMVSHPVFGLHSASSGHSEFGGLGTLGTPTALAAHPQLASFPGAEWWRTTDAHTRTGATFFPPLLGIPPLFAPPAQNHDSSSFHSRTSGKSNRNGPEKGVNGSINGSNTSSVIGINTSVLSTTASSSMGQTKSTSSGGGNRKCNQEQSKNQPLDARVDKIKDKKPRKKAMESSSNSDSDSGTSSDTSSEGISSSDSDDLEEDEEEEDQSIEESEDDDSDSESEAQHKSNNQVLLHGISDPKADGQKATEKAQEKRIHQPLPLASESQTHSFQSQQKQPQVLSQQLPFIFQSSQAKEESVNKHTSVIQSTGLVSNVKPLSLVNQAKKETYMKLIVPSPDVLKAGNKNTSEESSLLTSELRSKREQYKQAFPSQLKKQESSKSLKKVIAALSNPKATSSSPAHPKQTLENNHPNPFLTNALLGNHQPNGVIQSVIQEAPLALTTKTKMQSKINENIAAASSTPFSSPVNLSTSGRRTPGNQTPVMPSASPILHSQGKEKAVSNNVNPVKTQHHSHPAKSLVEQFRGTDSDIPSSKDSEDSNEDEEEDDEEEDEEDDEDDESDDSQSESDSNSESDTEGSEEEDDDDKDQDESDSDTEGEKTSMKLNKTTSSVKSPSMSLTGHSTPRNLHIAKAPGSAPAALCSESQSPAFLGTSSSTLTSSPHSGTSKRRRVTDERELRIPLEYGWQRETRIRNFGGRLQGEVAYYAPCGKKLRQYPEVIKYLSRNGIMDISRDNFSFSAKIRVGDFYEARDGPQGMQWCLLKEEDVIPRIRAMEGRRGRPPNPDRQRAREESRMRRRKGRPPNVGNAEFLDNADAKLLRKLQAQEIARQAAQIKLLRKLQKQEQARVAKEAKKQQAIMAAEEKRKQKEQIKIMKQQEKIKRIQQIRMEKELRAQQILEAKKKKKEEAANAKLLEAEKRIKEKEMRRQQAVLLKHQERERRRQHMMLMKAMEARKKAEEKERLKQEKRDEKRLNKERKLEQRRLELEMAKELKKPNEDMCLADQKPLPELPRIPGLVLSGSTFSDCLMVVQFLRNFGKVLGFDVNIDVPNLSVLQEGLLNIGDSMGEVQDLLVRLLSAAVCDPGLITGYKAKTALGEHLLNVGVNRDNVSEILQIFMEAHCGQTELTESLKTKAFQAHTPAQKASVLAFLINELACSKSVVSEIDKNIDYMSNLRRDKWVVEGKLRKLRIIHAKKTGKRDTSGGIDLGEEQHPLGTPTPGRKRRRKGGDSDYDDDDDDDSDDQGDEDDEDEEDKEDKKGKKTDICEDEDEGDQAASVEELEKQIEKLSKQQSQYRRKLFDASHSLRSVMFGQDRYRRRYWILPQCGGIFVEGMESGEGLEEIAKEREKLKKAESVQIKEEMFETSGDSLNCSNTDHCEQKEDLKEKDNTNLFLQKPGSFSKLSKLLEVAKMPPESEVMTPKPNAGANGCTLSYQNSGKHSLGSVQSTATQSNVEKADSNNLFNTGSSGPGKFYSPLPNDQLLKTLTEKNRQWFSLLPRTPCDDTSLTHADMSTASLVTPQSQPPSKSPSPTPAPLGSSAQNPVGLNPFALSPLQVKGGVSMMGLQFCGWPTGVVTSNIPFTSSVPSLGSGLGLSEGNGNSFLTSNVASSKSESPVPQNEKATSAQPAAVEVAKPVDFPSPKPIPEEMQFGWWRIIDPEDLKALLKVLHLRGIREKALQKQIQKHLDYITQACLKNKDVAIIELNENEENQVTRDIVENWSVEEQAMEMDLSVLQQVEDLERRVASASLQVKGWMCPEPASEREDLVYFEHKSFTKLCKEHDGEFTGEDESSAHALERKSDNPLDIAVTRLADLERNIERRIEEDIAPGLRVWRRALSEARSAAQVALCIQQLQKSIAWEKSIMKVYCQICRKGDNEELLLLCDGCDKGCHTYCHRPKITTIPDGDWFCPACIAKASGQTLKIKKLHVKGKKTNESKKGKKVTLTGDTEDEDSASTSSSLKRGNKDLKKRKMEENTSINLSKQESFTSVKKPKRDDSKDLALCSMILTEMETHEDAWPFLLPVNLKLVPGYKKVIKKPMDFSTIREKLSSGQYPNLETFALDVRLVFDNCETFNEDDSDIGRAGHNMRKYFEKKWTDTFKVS

[4] = target: Bromodomain-containing protein 2 (Homo sapiens) (UniProt P25440); assay: Binding affinity to human BRD2 at 10 uM by differential scanning fluorimetry
[5] = target: Bromodomain adjacent to zinc finger domain protein 2A (Homo sapiens) (UniProt Q9UIF9); assay: Binding affinity to human BAZ2A at 10 uM by differential scanning fluorimetry
[6] = target: CREB-binding protein (Homo sapiens) (UniProt Q92793); assay: Binding affinity to human CBP assessed as change in melting temperature at 10 uM by differential scanning fluorimetry
Chain of CREB-binding protein (Homo sapiens) (Q92793 2-2442 limits assumed): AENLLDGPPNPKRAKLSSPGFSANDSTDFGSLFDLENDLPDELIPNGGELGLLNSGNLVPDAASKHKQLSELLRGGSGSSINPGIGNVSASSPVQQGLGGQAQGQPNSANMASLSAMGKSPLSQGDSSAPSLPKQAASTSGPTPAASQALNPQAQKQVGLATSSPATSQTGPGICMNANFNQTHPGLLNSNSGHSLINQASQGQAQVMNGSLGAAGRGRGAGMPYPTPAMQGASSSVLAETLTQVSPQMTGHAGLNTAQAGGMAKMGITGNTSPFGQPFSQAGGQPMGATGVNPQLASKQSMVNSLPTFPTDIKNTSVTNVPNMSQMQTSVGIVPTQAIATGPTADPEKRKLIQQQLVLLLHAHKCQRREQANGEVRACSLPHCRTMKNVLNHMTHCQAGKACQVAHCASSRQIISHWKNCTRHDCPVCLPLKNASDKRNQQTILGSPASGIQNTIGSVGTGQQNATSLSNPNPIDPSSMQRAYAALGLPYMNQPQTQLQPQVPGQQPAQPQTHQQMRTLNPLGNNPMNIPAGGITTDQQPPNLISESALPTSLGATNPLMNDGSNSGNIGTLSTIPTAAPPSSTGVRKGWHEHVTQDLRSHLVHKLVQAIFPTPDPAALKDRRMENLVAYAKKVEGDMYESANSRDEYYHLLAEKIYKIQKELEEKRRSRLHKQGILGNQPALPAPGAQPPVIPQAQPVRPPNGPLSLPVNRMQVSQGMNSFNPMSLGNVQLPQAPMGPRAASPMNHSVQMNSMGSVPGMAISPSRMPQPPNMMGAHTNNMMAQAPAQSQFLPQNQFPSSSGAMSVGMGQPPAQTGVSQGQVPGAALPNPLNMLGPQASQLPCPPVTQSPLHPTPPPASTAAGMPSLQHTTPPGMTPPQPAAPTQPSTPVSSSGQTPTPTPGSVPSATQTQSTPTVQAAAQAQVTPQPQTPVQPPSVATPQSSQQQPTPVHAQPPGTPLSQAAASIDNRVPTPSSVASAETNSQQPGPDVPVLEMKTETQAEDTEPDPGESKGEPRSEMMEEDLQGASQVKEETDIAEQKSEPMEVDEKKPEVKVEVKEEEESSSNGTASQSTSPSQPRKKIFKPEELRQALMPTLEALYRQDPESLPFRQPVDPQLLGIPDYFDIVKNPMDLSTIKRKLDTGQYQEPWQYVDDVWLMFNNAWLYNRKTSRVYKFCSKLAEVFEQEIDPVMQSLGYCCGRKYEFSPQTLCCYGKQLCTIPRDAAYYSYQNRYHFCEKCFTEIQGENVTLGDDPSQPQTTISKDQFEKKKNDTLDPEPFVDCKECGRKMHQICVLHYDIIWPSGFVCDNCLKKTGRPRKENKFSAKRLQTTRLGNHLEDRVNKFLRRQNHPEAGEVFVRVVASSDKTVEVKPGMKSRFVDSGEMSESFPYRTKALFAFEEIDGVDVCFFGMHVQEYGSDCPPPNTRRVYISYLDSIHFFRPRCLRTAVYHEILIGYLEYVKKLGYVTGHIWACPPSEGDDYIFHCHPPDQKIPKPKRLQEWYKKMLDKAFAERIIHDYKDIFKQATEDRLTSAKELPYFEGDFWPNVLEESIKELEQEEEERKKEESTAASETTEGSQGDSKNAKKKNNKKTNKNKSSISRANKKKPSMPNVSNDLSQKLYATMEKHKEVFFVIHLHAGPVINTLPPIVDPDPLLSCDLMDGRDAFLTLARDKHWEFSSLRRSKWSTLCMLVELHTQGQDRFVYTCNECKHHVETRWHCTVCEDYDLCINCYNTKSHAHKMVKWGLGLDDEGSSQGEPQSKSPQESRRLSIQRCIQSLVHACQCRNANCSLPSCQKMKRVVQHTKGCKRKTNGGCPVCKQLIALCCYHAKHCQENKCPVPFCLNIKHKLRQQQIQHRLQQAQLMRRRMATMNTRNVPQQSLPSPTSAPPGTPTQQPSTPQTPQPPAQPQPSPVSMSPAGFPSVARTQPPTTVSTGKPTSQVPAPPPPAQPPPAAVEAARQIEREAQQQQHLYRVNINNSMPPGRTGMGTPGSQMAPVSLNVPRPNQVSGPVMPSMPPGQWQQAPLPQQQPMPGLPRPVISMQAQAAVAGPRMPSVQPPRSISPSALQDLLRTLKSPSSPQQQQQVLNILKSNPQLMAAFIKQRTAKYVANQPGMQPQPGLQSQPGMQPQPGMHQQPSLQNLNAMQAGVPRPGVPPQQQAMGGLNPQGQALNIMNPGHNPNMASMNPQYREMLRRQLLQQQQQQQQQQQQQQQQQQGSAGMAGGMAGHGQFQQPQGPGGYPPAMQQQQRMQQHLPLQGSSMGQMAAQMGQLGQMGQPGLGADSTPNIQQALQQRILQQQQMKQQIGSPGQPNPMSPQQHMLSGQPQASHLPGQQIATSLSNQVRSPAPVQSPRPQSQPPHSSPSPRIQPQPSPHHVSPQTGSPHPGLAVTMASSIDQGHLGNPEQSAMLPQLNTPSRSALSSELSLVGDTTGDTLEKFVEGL

[7] = target: Histone acetyltransferase p300 (Homo sapiens) (UniProt Q09472); assay: Binding affinity to human p300 assessed as change in melting temperature at 10 uM by differential scanning fluorimetry
[8] = target: Nucleosome-remodeling factor subunit BPTF (Homo sapiens) (UniProt Q12830); assay: Binding affinity to human FALZ assessed as change in melting temperature at 10 uM by differential scanning fluorimetry
[9] = target: T1, Bromodomain-containing protein 9 (Homo sapiens); assay: Inhibition of human BRD9 expressed in U2OS cells assessed as inhibition of BRD9-chromatin association after 24 hrs by FRAP assay in presence of pan-HDAC inhibitor SAHA; format: cell-based

ΔTm [1]: 4.5 °C
Kd [2]: 68 nM
ΔTm (Peregrin (Homo sapiens)): 1.7 °C
IC50 [3]: > 100000 nM
Activity [4]: Active
Activity [5]: Active
ΔTm [6]: 1.8 °C
ΔTm [7]: 2 °C
ΔTm [8]: 1.1 °C
inhibition [9]: Dose-dependent effect
SMILES: CC(=O)c1cc(-c2cccc3nccn23)c2cc(N3CCOCC3)ccn12
